Active and inactive are the calls of the source. For most assays here, no stated cut-off is given here; in the data, actives have a measured EC50 and inactives only a lower limit.

Assay [1] can be described thus: Luminescence Cell-Based Dose Response HTS to Identify Activators of Luciferase Translation or Activity in H4 […] Cells. [Related pubchem assays: 1829 (Project Summary), 1814 (Primary HTS)]. It is filed as functional.
Assay [2] can be described thus: Luminescence Cell-Based Dose Confirmation HTS to Identify Activators of 5'UTR Stem-Loop Driven Alpha-Synuclein mRNA Translation in H4 Neuroglioblastoma Cells. [Related pubchem assays: 1829 (Project Summary), 1814 (Primary HTS)]. It is filed as functional.
Assay [3] relates to H4. Briefly: Luminescence Cell-Based Dose Response HTS to Identify Activators of 5'UTR Stem-Loop Driven Prion Protein mRNA Translation in H4 Neuroglioblastoma Cells. [Related pubchem assays: 1829 (Project Summary), 1814 (Primary HTS)]. It is filed as functional. The settings on record: Homo sapiens.
In assay [4] the target is T1, RNA-binding protein pos-1 (Caenorhabditis elegans, UniProt G5EF15).
T1 sequence (G5EF15 whole entry): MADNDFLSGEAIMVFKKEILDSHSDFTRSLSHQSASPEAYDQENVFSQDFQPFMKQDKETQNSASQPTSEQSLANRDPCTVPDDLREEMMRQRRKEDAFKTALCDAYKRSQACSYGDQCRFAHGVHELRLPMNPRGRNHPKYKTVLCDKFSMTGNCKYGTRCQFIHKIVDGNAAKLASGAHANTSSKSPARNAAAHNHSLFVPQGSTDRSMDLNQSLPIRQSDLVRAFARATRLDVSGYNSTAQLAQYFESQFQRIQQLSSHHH
Briefly: disruptors of C. elegans POS-1 RNA interaction – biochemical, fluorescence polarization, dose response (AID 1964).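 Further: purified POS-1 fused to maltose binding protein made in E. coli; potency of compounds blocking POS-1 binding to fluorescent RNA.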

The target in assay [5] is T2, Zinc finger protein mex-5 (Caenorhabditis elegans, UniProt Q9XUB2).
T2 sequence (Q9XUB2 whole entry): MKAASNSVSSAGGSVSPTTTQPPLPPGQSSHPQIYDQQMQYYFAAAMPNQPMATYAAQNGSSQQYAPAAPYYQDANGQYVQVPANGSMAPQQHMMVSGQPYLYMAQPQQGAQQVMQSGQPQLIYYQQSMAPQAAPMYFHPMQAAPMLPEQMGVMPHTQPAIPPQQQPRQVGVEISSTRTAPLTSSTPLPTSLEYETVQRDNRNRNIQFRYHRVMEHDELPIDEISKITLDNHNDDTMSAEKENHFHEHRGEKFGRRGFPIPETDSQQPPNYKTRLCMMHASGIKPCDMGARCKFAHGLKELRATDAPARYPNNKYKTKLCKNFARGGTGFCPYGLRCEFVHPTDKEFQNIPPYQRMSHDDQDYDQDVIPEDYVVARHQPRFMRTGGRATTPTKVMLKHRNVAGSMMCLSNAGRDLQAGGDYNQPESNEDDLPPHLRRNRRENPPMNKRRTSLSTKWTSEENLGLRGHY
The assay can be described thus: potency of MEX-5 RNA-binding blockers – biochemical, C. elegans, fluorescence polarization, dose response (AID 1960). On the technique in general: Fluorescence polarisation rises when a labelled molecule tumbles more slowly, as on binding a larger partner.

For assay [6], the system named is H9c2. The assay can be described thus: cells. Format: functional, cell-based. Conditions: Rattus norvegicus, H9c2, Myocardium.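 Further: confirmatory concentration-response retest of ultra-high-throughput screening hits for modulation of myocardial damage; cell death induced by hydrogen peroxide oxidative stress; compound pretreatment for 60 min then peroxide exposure for 2 h; potency is for protecting the cells against peroxide damage rather than for killing them.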
In assay [7] the target is T3, Cytochrome P450 3A4 (Homo sapiens, UniProt P08684). Conditions: Potency.
Assay [8] relates to INS1. The assay can be described thus: INS-1E survival protection against cytokine death – cell-based, luminescence, retest, dose response (AID 449756).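 Further: cell death triggered by IL-1 beta plus TNF-alpha plus IFN-gamma mixture; protective hits raise ATP signal compared with cytokine alone wells.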 It is filed as functional. Conditions: Rattus norvegicus.
Assay [9] deals with T4, Polyadenylate-binding protein 1 (Homo sapiens, UniProt P11940). The assay can be described thus: MLLE binding blockers, Cy5 peptide tracer – biochemical, fluorescence polarization, Cy5-PAM2 peptide, secondary, miRNA deadenylation inhibitor project, dose response (AID 602260). It is filed as functional. The settings on record: read-out: IC50_Mean.
For assay [10], the target named is T4, Polyadenylate-binding protein 1. Briefly: MLLE domain peptide-binding blockers, IC50 – biochemical, fluorescence polarization, FITC-PAM2 peptide, dose response (AID 602259). The settings on record: read-out: IC50_Mean. Format: functional.
Assay [11] in a line: NIH3T3 cell viability loss – ATP luminescence, mouse fibroblasts, counter-screen, dose response (AID 2010).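 Further: cells exposed to compound for about 90 hours before reading.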 Format: functional, cell-based. (In general: Counterscreens check selectivity or assay interference.)
A short description of assay [12]: Trypanosoma cruzi growth suppression in host cells – NIH3T3 host cells, beta-gal luminescence, confirmation (AID 2044).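 Further: intracellular parasites grown in NIH/3T3 mouse fibroblasts as host cells; luminescent beta-galactosidase reporter signal from transgenic T. cruzi replicating inside host cells; inhibitors lower the luminescence signal.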 It is filed as functional, cell-based.
The target in assay [13] is T3, Cytochrome P450 3A4.
The target of assay [14] is T5, Streptokinase A (Streptococcus pyogenes serotype M1, UniProt P10520).
T5 sequence (P10520 whole entry): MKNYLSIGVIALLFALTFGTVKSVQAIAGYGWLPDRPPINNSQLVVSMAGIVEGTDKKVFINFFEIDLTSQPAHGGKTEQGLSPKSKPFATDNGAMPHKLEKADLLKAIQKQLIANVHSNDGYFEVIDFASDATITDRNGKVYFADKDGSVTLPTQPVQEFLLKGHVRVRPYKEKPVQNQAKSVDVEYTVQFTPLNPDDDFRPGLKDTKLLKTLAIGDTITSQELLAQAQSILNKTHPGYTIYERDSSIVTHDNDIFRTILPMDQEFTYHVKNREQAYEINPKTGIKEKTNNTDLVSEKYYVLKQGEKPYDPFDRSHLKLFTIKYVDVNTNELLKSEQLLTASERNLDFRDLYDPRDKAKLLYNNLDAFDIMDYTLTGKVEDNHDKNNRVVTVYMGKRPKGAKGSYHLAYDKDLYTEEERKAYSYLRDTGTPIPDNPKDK
The assay can be described thus: viability-normalized secreted streptokinase activity reduction – plasminogen activation absorbance, OD405, dose response (AID 1914).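 Further: secreted streptokinase activity via plasminogen activation per viability signal from cell pellet.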 It is filed as functional, Streptococcus pyogenes M1 GAS.

Assay [15] relates to Streptococcus. Briefly: GAS UMAA2166 growth inhibition – luminescence, BacTiterGlo, counter-screen for streptokinase expression inhibitor project, dose response (AID 1915).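 Further: potency for reduction of bacterial viability or growth.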 Format: functional, organism-based.
Assay [16] deals with Streptococcus sp. 'group A'. The assay can be described thus: Streptococcus pyogenes SK(-)GAS viability under kanamycin – luminescence, BacTiterGlo, confirmation, counter-screen for streptokinase expression inhibitor project, dose response (AID 1900). Format: functional, organism-based.

T3 sequence (P08684 whole entry): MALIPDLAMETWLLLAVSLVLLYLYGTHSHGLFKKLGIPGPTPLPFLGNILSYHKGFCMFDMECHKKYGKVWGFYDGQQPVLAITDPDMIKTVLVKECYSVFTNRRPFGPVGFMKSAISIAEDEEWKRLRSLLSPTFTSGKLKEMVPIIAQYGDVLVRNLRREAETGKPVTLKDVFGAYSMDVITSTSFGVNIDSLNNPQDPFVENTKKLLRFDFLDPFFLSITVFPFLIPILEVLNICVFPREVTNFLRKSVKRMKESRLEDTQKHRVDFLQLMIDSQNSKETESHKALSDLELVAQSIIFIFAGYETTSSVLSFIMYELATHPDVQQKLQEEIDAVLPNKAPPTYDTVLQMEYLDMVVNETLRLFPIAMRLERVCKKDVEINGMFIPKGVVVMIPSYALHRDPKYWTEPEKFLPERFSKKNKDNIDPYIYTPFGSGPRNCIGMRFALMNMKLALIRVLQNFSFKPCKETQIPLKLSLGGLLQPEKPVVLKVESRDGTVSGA
T4 sequence (P11940 whole entry, the tested form may be a part): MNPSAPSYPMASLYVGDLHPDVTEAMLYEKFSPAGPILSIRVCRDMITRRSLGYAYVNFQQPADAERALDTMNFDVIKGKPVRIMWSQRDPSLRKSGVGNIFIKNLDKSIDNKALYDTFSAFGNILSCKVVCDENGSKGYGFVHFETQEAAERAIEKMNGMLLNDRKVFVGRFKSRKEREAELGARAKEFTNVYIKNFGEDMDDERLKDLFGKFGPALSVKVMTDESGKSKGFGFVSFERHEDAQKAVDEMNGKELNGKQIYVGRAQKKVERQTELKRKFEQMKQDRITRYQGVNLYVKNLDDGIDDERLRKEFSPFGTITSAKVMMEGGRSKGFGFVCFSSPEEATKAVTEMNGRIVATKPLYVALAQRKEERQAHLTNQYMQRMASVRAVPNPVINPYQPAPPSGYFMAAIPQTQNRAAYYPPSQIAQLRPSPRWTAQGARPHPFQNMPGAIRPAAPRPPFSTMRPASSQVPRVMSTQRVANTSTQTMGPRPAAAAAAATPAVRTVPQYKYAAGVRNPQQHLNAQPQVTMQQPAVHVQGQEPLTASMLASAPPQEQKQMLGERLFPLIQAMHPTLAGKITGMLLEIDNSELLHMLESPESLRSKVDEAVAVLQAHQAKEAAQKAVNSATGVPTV

Take `CC(Cc1cccs1)NC(=O)NC1CCCCC1` (centres undefined): the EC50 (in general, the concentration at which the effect is half-maximal) in [1] is 68.9 µM (active); in assay [2], > 60 µM (not active); in assay [3], 39.8 µM (active).
Turning to `N#CC1=C(N)OC2=C(C(=O)CCC2)C12C(=O)N1CCCc3cccc2c31` (centres undefined), the EC50 in assay [4] and in assay [5] was > 300 µM (not active) in each case.
Take `Cc1ccc2[nH]c(SCc3nc(O)c4ccccc4n3)nc2c1`: the IC50 in assay [6] is > 79 µM (inactive).
Consider `COc1cc(C=O)c([N+](=O)[O-])cc1OC`, for which the AC50 – broadly, the concentration at which the activity in the assay is half-maximal – in assay [7] was 25.1 µM (inconclusive).
With `O=C(CCN1C(=O)C2CC=C(Cl)CC2C1=O)N1CCCCC1` (centres undefined), the EC50 in assay [4] was 29.5 µM (active); in assay [5] it was 18.1 µM (active).
With `COC(=O)c1cc2ccccn2c2c(C(=O)OC)c(C(=O)OC)cc1-2`, in assay [6], the IC50 was > 79 µM (inactive).
Consider `N#Cc1ccc(C23CC4(C2)[C@H](CN(Cc2ccc(C(F)(F)F)cc2)[C@@H]4c2ccccc2)C3c2ccccc2)cc1` (some centres undefined), for which the AC50 in assay [7] is 25.1 µM (inconclusive).
As for `O=C(CSc1nc(O)c(Cc2ccccc2)c(O)n1)c1ccccc1`, the EC50 is > 120 µM (not active) in assay [1], 14.7 µM (active) in assay [2] and 14.4 µM (active) in [3].
For the compound `COC(=O)c1ccc(C23CC4(C2)[C@H](CN(C)[C@@H]4c2ccccc2)C3c2ccccc2)cc1` (some centres undefined), the AC50 in [7] is 12.6 µM (inconclusive).
Still for that read-out and setting: in the case of `COC(c1ccccc1)C(C)C(OC)C(C)C(OC)C(C)C(C)=O` (centres undefined) it was 3.98 µM (inconclusive).
`Cc1sc(/C=C2\C(=O)ON=C2c2ccccc2)cc1Br`: the EC50 in assay [4] is 24.1 µM (inconclusive); in assay [5] it was 7.46 µM (inconclusive).
Turning to `Cc1nc2ccccc2c(=O)[nH]1`, the IC50 in assay [6] was > 79 µM (inactive).
Turning to `CN(C)S(=O)(=O)c1ccc(NC(=O)COC(=O)Cn2[nH]c(=O)c3ccccc3c2=O)cc1`, the IC50 in assay [6] was > 79 µM (inactive).
Still for that read-out and setting: in the case of `COc1ccc2occ(C(=O)c3coc4ccc(O)c(CN(C)C)c34)c2c1` it was > 79 µM (inactive).
Consider `CCc1nnc2c3cnn(-c4ccccc4)c3ncn12`, for which the concentration for a half-maximal effect (EC50) is 113 µM (active) in assay [1], 5.12 µM (active) in assay [2] and > 120 µM (not active) in assay [3].
For `COCCNC(=O)Cc1c(C)c2c(cc(C)c3c(C(C)(C)C)coc32)oc1=O`, in that order: 10.1 µM (active), > 120 µM (not active) and > 120 µM (not active).
With `CCC1OC(=O)C(C)[C@@H](O[C@H]2C[C@@](C)(OC)C(O)C(C)O2)C(C)[C@@H](O[C@@H]2OC(C)CC(N(C)C)C2O)[C@@](C)(O)CC(C)C(=O)[C@@H](C)C(O)[C@]1(C)O` (some centres undefined), the AC50 in [7] was 31.6 µM (inconclusive).
Consider `O=C(NNC(=O)c1ccccc1O)c1ccco1`, for which the EC50 in assay [4] was 24 µM (active); in assay [5], 19.4 µM (active).
Take `CC(C)CCn1cc[n+](C2=C([N-]S(=O)(=O)c3ccccc3)C(=O)c3ccccc3C2=O)c1`: the AC50 in assay [8] is 4.76 µM (active).
As to `COc1ccc2cc(-c3[nH]ncc3CN3CCCCO3)ccc2c1`, the EC50 in [1] is 25 µM (active); in assay [2], > 120 µM (not active); in assay [3] it was > 60 µM (not active).
`CCOC(=O)CC1=C(C(=O)OCC)C(c2ccc(C)o2)C(C#N)=C(N)O1` (centres undefined): the IC50 was > 66 µM (inactive) in assay [9] and 32 µM (inactive) in assay [10].
`Cc1c(OCC(=O)NCCN2CCOCC2)ccc2c1oc(=O)c1ccccc12`: in assay [6], the IC50 is > 79 µM (inactive).
For `Cc1cc(C2(c3cc(C)c(O)cc3C)OS(=O)(=O)c3ccccc32)c(C)cc1O`, the AC50 in [7] was 7.94 µM (inconclusive).
On to `Cc1cc(Nc2nc3ccccc3nc2Cl)n(-c2ccc([N+](=O)[O-])cc2)n1`, for which the results for the EC50 in assay [11] and in [12] were > 60 µM (not active) and 2.24 µM (active), respectively. Besides, the AC50 in [8] was 8.83 µM (active).
Regarding `O=C(NC(=S)NC1CCSC1=O)c1cccc([N+](=O)[O-])c1` (centres undefined), the IC50 in assay [9] and in assay [10] was > 66 µM (inactive) throughout.
`CCCCC(=O)Nc1cc(C)c2c(=O)oc3ccccc3c2n1`: the IC50 in [6] was > 79 µM (inactive).
Take `Cc1ccc(N2C(=O)/C(=C/c3ccc(CN(CCC#N)S(C)(=O)=O)o3)C(=O)NC2=S)cc1C`: the EC50 in [4] was 15.5 µM (active); in [5], 9.89 µM (active). Further, the AC50 in assay [13] is 22.4 µM (inconclusive).
`CN1CCCc2cc3c(C(F)(F)F)cc(=O)oc3nc21`: the EC50 in assay [4] is 24.9 µM (active); in [5] it was 25.7 µM (inconclusive).
Consider `Cc1cccc(OCCn2c(NC(=O)c3ccco3)nc3ccccc32)c1`, for which the EC50 is 29.8 µM (active) in assay [11]; > 150 µM (not active) in assay [14]; 7.32 µM (active) in assay [15]; 4.74 µM (active) in [16]; 1.69 µM (active) in assay [12]. Moreover, the IC50 in [6] is 11 µM (active).
For the compound `Cc1ccc(-c2nnc(O)c3ccccc23)cc1N`, in assay [6], the IC50 is 34.5 µM (inactive).
As for `CCCc1cc(C(=O)NCC(C)C)no1`, the EC50 in [1] was 22.9 µM (active); in assay [2], 14.8 µM (active).
With `CCCCCCCCCc1ccc(O)cc1` [4-NONYLPHENOL], the AC50 in assay [7] was 31.6 µM (inconclusive).
For `C=C1CCC(=O)C(C)CCC2C1CC2(C)C` (centres undefined) [DIHYDROCARYOPHYLLEN-5-ONE], in assay [7], the AC50 is 25.1 µM (inconclusive).
For `BrC1C(Br)C(Br)C(Br)C(Br)C1Br` (centres undefined), the AC50 in [7] was 15.8 µM (inconclusive).
In the case of `Cc1cc(Nc2nc3ccccc3nc2Cl)n(-c2ccccc2)n1`, the EC50 in assay [1], in assay [2] and in assay [3] was > 120 µM (not active) each time.
Consider `Cn1nc(C(=O)Nc2nc(-c3ccccn3)cs2)c2ccccc2c1=O`, for which, in [6], the IC50 is > 79 µM (inactive).
As to `Cc1nc(/N=N\c2cc(S(=O)(=O)O)c3cc([N+](=O)[O-])cc(S(=O)(=O)O)c3c2)c(COP(=O)(O)O)c(C=O)c1O`, the AC50 in assay [7] was 15.8 µM (inconclusive).
As for `C=C1CC[C@@H]2O[C@@]2(C)CC[C@H]2[C@H]1CC2(C)C`, the AC50 in assay [7] is 39.8 µM (inconclusive).
Take `Cc1ccc(S(=O)(=O)N2CCOCC2)cc1NC(=O)CN(C)C1CCS(=O)(=O)C1` (centres undefined): the EC50 in assay [4] and in assay [5] was > 300 µM (not active) each time.

The record behind these values is ChEMBL document CHEMBL1201862, “PubChem BioAssay data set” (2004).
